In ChEMBL document CHEMBL3885881, “DrugMatrix”:

Species: Rattus norvegicus
Assay: DrugMatrix - Regimen: Daily Repeat
Assay type: toxicity, organism-based, Sprague-Dawley
Parameters: regimen Daily Repeat, gender Male, age 6-8 weeks
Settings: in vivo, po, route oral GAVAGE, vehicle .5 % CMC; for BASOPHIL / EOSINOPHIL / ERYTHROCYTE COUNT / HEMATOCRIT / HEMOGLOBIN / LEUKOCYTE COUNT / LYMPHOCYTE / MEAN CORPUSCULAR HEMOGLOBIN / MEAN CORPUSCULAR HEMOGLOBIN CONCENTRATION / MEAN CORPUSCULAR VOLUME / MONOCYTE / NEUTROPHIL / PLATELET COUNT: tissue Blood; for ALANINE AMINOTRANSFERASE / ALBUMIN / ALKALINE PHOSPHATASE / ASPARTATE AMINOTRANSFERASE / BLOOD UREA NITROGEN / CHLORIDE / CHOLESTEROL / CREATINE PHOSPHOKINASE / CREATININE / GLUCOSE / PHOSPHORUS / POTASSIUM / SODIUM / TOTAL BILIRUBIN / TOTAL PROTEIN: tissue Plasma
[1] = 0 mg/kg, 72 h, dose level Control, time 3 day
[2] = 0 mg/kg, 120 h, dose level Control, time 5 day
[3] = 1 mg/kg, 72 h, dose level Low, time 3 day
[4] = 1 mg/kg, 120 h, dose level Low, time 5 day
[5] = 22 mg/kg, 72 h, dose level High, time 3 day
[6] = 22 mg/kg, 120 h, dose level High, time 5 day

`N=C(N)NC(=O)c1nc(Cl)c(N)nc1N` [AMILORIDE] was tested, and the BASOPHIL [1] was 0%, the EOSINOPHIL [1] was 0.33% and the “ERYTHROCYTE COUNT” value [1] was 6.2 x10E6/uL. For the same compound, the HEMATOCRIT [1] was 38.08%, the HEMOGLOBIN [1] was 14.92 G/DL and the “LEUKOCYTE COUNT” value [1] was 11.13 x10E3/uL. For the same compound, the LYMPHOCYTE [1] was 76%, the “MEAN CORPUSCULAR HEMOGLOBIN” value [1] was 24.1 pg and the “MEAN CORPUSCULAR HEMOGLOBIN CONCENTRATION” value [1] was 39.17 G/DL. The “MEAN CORPUSCULAR VOLUME” value [1] was 61.48 fL, the MONOCYTE [1] was 3.83% and the NEUTROPHIL [1] was 19.83%. The “PLATELET COUNT” value [1] was 1327.5 x10E3/uL, the “ALANINE AMINOTRANSFERASE” value [1] was 40.17 u/L and the ALBUMIN [1] was 4.07 G/DL. The “ALKALINE PHOSPHATASE” value [1] was 372 u/L, the “ASPARTATE AMINOTRANSFERASE” value [1] was 67.17 u/L and the “BLOOD UREA NITROGEN” value [1] was 18.83 mg/dL. For the same compound, the CHLORIDE [1] was 105.17 MEQ/L, the CHOLESTEROL [1] was 78.17 mg/dL and the “CREATINE PHOSPHOKINASE” value [1] was 149.17 u/L. For the same compound, the CREATININE [1] was 0.57 mg/dL, the GLUCOSE [1] was 185.17 mg/dL and the PHOSPHORUS [1] was 11.43 mg/dL. For the same compound, the POTASSIUM [1] was 6.78 MEQ/L, the SODIUM [1] was 152.83 MEQ/L and the “TOTAL BILIRUBIN” value [1] was 0.4 mg/dL. For the same compound, the “TOTAL PROTEIN” value [1] was 6.87 G/DL, the BASOPHIL [2] was 0% and the EOSINOPHIL [2] was 0%. For the same compound, the “ERYTHROCYTE COUNT” value [2] was 6.05 x10E6/uL, the HEMATOCRIT [2] was 36.55% and the HEMOGLOBIN [2] was 14.7 G/DL. The “LEUKOCYTE COUNT” value [2] was 11.8 x10E3/uL, the LYMPHOCYTE [2] was 86.83% and the “MEAN CORPUSCULAR HEMOGLOBIN” value [2] was 24.37 pg. For the same compound, the “MEAN CORPUSCULAR HEMOGLOBIN CONCENTRATION” value [2] was 40.32 G/DL, the “MEAN CORPUSCULAR VOLUME” value [2] was 60.47 fL and the MONOCYTE [2] was 0.83%. The NEUTROPHIL [2] was 12.33%, the “PLATELET COUNT” value [2] was 1177 x10E3/uL and the “ALANINE AMINOTRANSFERASE” value [2] was 41.83 u/L. The ALBUMIN [2] was 3.75 G/DL, the “ALKALINE PHOSPHATASE” value [2] was 377.5 u/L and the “ASPARTATE AMINOTRANSFERASE” value [2] was 60.83 u/L. The “BLOOD UREA NITROGEN” value [2] was 16 mg/dL, the CHLORIDE [2] was 105.67 MEQ/L and the CHOLESTEROL [2] was 67.83 mg/dL. The “CREATINE PHOSPHOKINASE” value [2] was 120.33 u/L, the CREATININE [2] was 0.6 mg/dL and the GLUCOSE [2] was 167.67 mg/dL. It also gave a PHOSPHORUS [2] of 10.03 mg/dL, a POTASSIUM [2] of 6.68 MEQ/L and an SODIUM [2] of 150.5 MEQ/L. For the same compound, the “TOTAL BILIRUBIN” value [2] was 0.57 mg/dL, the “TOTAL PROTEIN” value [2] was 6.25 G/DL and the BASOPHIL [3] was 0%. The EOSINOPHIL [3] was 1.33%, the “ERYTHROCYTE COUNT” value [3] was 6.13 x10E6/uL and the HEMATOCRIT [3] was 37.63%. The HEMOGLOBIN [3] was 14.93 G/DL, the “LEUKOCYTE COUNT” value [3] was 12.73 x10E3/uL and the LYMPHOCYTE [3] was 84%. For the same compound, the “MEAN CORPUSCULAR HEMOGLOBIN” value [3] was 24.37 pg, the “MEAN CORPUSCULAR HEMOGLOBIN CONCENTRATION” value [3] was 39.67 G/DL and the “MEAN CORPUSCULAR VOLUME” value [3] was 61.4 fL. For the same compound, the MONOCYTE [3] was 0.67%, the NEUTROPHIL [3] was 14% and the “PLATELET COUNT” value [3] was 1265 x10E3/uL. The “ALANINE AMINOTRANSFERASE” value [3] was 50 u/L, the ALBUMIN [3] was 3.87 G/DL and the “ALKALINE PHOSPHATASE” value [3] was 414 u/L. The “ASPARTATE AMINOTRANSFERASE” value [3] was 63.67 u/L, the “BLOOD UREA NITROGEN” value [3] was 15.67 mg/dL and the CHLORIDE [3] was 107 MEQ/L. The CHOLESTEROL [3] was 81.33 mg/dL, the “CREATINE PHOSPHOKINASE” value [3] was 135.67 u/L and the CREATININE [3] was 0.57 mg/dL. It also gave a GLUCOSE [3] of 168.67 mg/dL, a PHOSPHORUS [3] of 10.33 mg/dL and a POTASSIUM [3] of 6.13 MEQ/L. For the same compound, the SODIUM [3] was 152.33 MEQ/L, the “TOTAL BILIRUBIN” value [3] was 0.43 mg/dL and the “TOTAL PROTEIN” value [3] was 6.37 G/DL. For the same compound, the BASOPHIL [4] was 0%, the EOSINOPHIL [4] was 0% and the “ERYTHROCYTE COUNT” value [4] was 5.82 x10E6/uL. The HEMATOCRIT [4] was 35.67%, the HEMOGLOBIN [4] was 14.2 G/DL and the “LEUKOCYTE COUNT” value [4] was 12.4 x10E3/uL. The LYMPHOCYTE [4] was 85.33%, the “MEAN CORPUSCULAR HEMOGLOBIN” value [4] was 24.43 pg and the “MEAN CORPUSCULAR HEMOGLOBIN CONCENTRATION” value [4] was 39.93 G/DL. For the same compound, the “MEAN CORPUSCULAR VOLUME” value [4] was 61.3 fL, the MONOCYTE [4] was 2% and the NEUTROPHIL [4] was 12.67%. The “PLATELET COUNT” value [4] was 1224 x10E3/uL, the “ALANINE AMINOTRANSFERASE” value [4] was 35.33 u/L and the ALBUMIN [4] was 3.67 G/DL. For the same compound, the “ALKALINE PHOSPHATASE” value [4] was 386.67 u/L, the “ASPARTATE AMINOTRANSFERASE” value [4] was 62 u/L and the “BLOOD UREA NITROGEN” value [4] was 15 mg/dL. The CHLORIDE [4] was 105.33 MEQ/L, the CHOLESTEROL [4] was 74 mg/dL and the “CREATINE PHOSPHOKINASE” value [4] was 130.33 u/L. For the same compound, the CREATININE [4] was 0.63 mg/dL, the GLUCOSE [4] was 171 mg/dL and the PHOSPHORUS [4] was 10.63 mg/dL. The POTASSIUM [4] was 6.7 MEQ/L, the SODIUM [4] was 150 MEQ/L and the “TOTAL BILIRUBIN” value [4] was 0.5 mg/dL. For the same compound, the “TOTAL PROTEIN” value [4] was 6.1 G/DL, the BASOPHIL [5] was 0% and the EOSINOPHIL [5] was 1%. For the same compound, the “ERYTHROCYTE COUNT” value [5] was 5.75 x10E6/uL, the HEMATOCRIT [5] was 35.27% and the HEMOGLOBIN [5] was 13.6 G/DL. For the same compound, the “LEUKOCYTE COUNT” value [5] was 10.47 x10E3/uL, the LYMPHOCYTE [5] was 85% and the “MEAN CORPUSCULAR HEMOGLOBIN” value [5] was 23.63 pg. The “MEAN CORPUSCULAR HEMOGLOBIN CONCENTRATION” value [5] was 38.63 G/DL, the “MEAN CORPUSCULAR VOLUME” value [5] was 61.17 fL and the MONOCYTE [5] was 1.33%. The NEUTROPHIL [5] was 12.67%, the “PLATELET COUNT” value [5] was 1066.33 x10E3/uL and the “ALANINE AMINOTRANSFERASE” value [5] was 46 u/L. The ALBUMIN [5] was 4.03 G/DL, the “ALKALINE PHOSPHATASE” value [5] was 373.67 u/L and the “ASPARTATE AMINOTRANSFERASE” value [5] was 68.33 u/L. The “BLOOD UREA NITROGEN” value [5] was 23.33 mg/dL, the CHLORIDE [5] was 102.67 MEQ/L and the CHOLESTEROL [5] was 70 mg/dL. For the same compound, the “CREATINE PHOSPHOKINASE” value [5] was 117 u/L, the CREATININE [5] was 0.7 mg/dL and the GLUCOSE [5] was 167 mg/dL. For the same compound, the PHOSPHORUS [5] was 11.37 mg/dL, the POTASSIUM [5] was 7.33 MEQ/L and the SODIUM [5] was 146 MEQ/L. The “TOTAL BILIRUBIN” value [5] was 0.57 mg/dL, the “TOTAL PROTEIN” value [5] was 6.63 G/DL and the BASOPHIL [6] was 0%. For the same compound, the EOSINOPHIL [6] was 0%, the “ERYTHROCYTE COUNT” value [6] was 6.16 x10E6/uL and the HEMATOCRIT [6] was 36.37%. For the same compound, the HEMOGLOBIN [6] was 14.6 G/DL, the “LEUKOCYTE COUNT” value [6] was 18.57 x10E3/uL and the LYMPHOCYTE [6] was 86%. For the same compound, the “MEAN CORPUSCULAR HEMOGLOBIN” value [6] was 23.73 pg, the “MEAN CORPUSCULAR HEMOGLOBIN CONCENTRATION” value [6] was 40.17 G/DL and the “MEAN CORPUSCULAR VOLUME” value [6] was 59.03 fL. The MONOCYTE [6] was 1.33%, the NEUTROPHIL [6] was 11.67% and the “PLATELET COUNT” value [6] was 1100.67 x10E3/uL. The “ALANINE AMINOTRANSFERASE” value [6] was 47.33 u/L, the ALBUMIN [6] was 3.77 G/DL and the “ALKALINE PHOSPHATASE” value [6] was 450.67 u/L. For the same compound, the “ASPARTATE AMINOTRANSFERASE” value [6] was 62 u/L, the “BLOOD UREA NITROGEN” value [6] was 22.33 mg/dL and the CHLORIDE [6] was 104.67 MEQ/L. The CHOLESTEROL [6] was 76 mg/dL, the “CREATINE PHOSPHOKINASE” value [6] was 128.33 u/L and the CREATININE [6] was 0.63 mg/dL. The GLUCOSE [6] was 167.67 mg/dL, the PHOSPHORUS [6] was 10.73 mg/dL and the POTASSIUM [6] was 6.83 MEQ/L. The SODIUM [6] was 148.33 MEQ/L, the “TOTAL BILIRUBIN” value [6] was 0.47 mg/dL and the “TOTAL PROTEIN” value [6] was 6.07 G/DL.
